In ChEMBL document CHEMBL1127540, “Three-dimensional pharmacophores from binding data” (J Med Chem, 1994):
pKi: −log10 of the molar value. Starred links: 1 amine or outer side, 2 acyl side, 3 side chain; linkers in the order of their positions; H or OH if unused. Non-standard residues stand in square brackets, D forms with d. Residues, ends and D or L forms follow the SMILES beside them. *: point of attachment. Hexanoyl(5S-NH,4S-OH,6-Ph) = O=C(CC[C@H](O)[C@H](Cc1ccccc1)N[*:1])[*:2]; X3 = O=C([C@@H]1CCC[C@@H]1[C@H](O)[C@H](Cc1ccccc1)N[*:1])[*:2]; PheΨ(PO2HCH2)Gly = O=C(CCP(=O)(O)[C@H](Cc1ccccc1)N[*:1])[*:2]; X5 = O=C([C@H]1CCCN1C[C@H](O)[C@H](Cc1ccccc1)N[*:1])[*:2]; Ahppa(3S,4S) = O=C(C[C@H](O)[C@H](Cc1ccccc1)N[*:1])[*:2]; X2 = CC(C)C[C@H](N[*:1])[C@@H](O)CN1CCC[C@@H]1C(=O)[*:2]; X10 = O=C([C@H]1CCCN1C[C@H](Cc1ccc(O)cc1)N[*:1])[*:2]; X1 = O=C(C[C@H](O)[C@H](Cc1ccc(O)cc1)N[*:1])[*:2]; X4 = O=C([C@H](Cc1ccccc1)N[*:1])C(F)(F)C(=O)[*:2]; X8 = O=C([C@H]1CCCN1C[C@H](Cc1ccccc1)N[*:1])[*:2]; Cbz = O=C(OCc1ccccc1)*; Boc = CC(C)(C)OC(=O)*

Each molecule was assayed against Human immunodeficiency virus type 1 protease (Human immunodeficiency virus 1, UniProt Q72874) (assay: Binding affinity to HIV-1 protease).

Row | pKi | SMILES
1 | 8.06 | CC[C@H](C)[C@H](NC(=O)[C@@H](C[C@H](O)[C@H](CC(C)C)NC(=O)[C@H](Cc1c[nH]cn1)NC(=O)[C@H](Cc1ccccc1)NC(=O)[C@H]1CCCN1C(=O)[C@H](Cc1c[nH]cn1)NC(=O)OC(C)(C)C)C(C)C)C(=O)N[C@@H](Cc1c[nH]cn1)C(=O)O
2 | 7.92 | CC(C)(C)OC(=O)N[C@@H](Cc1ccccc1)[C@H](O)[C@H](O)[C@H](Cc1ccccc1)NC(=O)OC(C)(C)C
3 | 9.47 | CC(C)(C)OC(=O)N[C@@H](Cc1ccccc1)[C@@H](O)CC(Cc1ccc(OCC(=O)O)cc1)C(=O)N[C@@H]1c2ccccc2C[C@H]1O (some centres undefined)
4 | 8.68 | NC(=O)C[C@H](NC(=O)OCc1ccccc1)C(=O)N[C@@H](Cc1ccccc1)C(=O)C(F)(F)CCc1ccccc1
5 | 6.30 | CC[C@H](C)[C@H](NC(=O)[C@H](C(C)C)[C@H](O)[C@H](O)[C@H](CC(C)C)NC(=O)[C@H](Cc1c[nH]cn1)NC(=O)[C@H](Cc1ccccc1)NC(=O)OC(C)(C)C)C(=O)NCc1ccccn1
6 | 7.55 | CC[C@H](C)[C@H](NC(=O)[C@H](C(C)C)[C@@H](O)[C@H](O)[C@H](CC(C)C)NC(=O)[C@H](Cc1c[nH]cn1)NC(=O)[C@H](Cc1ccccc1)NC(=O)OC(C)(C)C)C(=O)NCc1ccccn1
7 | 8.43 | CC(C)[C@H](NC(=O)OCc1ccccc1)C(=O)N[C@@H](Cc1ccccc1)[C@@H](O)[C@@H](CC(=O)[C@H](NC(=O)OCc1ccccc1)C(C)C)Cc1ccccc1
8 | 9.66 | CC(C)[C@H](NC(=O)OCc1ccccc1)C(=O)N[C@@H](Cc1ccccc1)[C@@H](O)[C@H](O)[C@H](Cc1ccccc1)NC(=O)OCc1ccccc1
9 | 7.20 | CC(C)(C)OC(=O)N[C@@H](Cc1ccccc1)[C@@H](O)CC(=O)N[C@@H](CCC(=O)O)C(=O)N[C@@H](Cc1ccccc1)C(=O)O
10 | 6.44 | CCC(C)CNC(=O)[C@H](C(C)C)[C@@H](O)[C@H](O)[C@H](CC(C)C)NC(=O)[C@H](Cc1c[nH]cn1)NC(=O)[C@H](Cc1ccccc1)NC(=O)OC(C)(C)C (some centres undefined)
11 | 5.15 | CC(C)(C)OC(=O)N[C@H](Cc1ccccc1)[C@@H](O)CC(=O)N[C@@H](CCC(=O)O)C(=O)N[C@@H](Cc1ccccc1)C(=O)O
12 | 9.42 | CC(C)[C@H](NC(=O)OCc1ccccc1)C(=O)N[C@@H](Cc1ccccc1)[C@H](O)[C@@H](O)[C@H](Cc1ccccc1)NC(=O)[C@@H](NC(=O)OCc1ccccc1)C(C)C
13 | 5.48 | CC(C)(C)OC(=O)N[C@@H](Cc1ccccc1)[C@H](O)C(=O)N[C@@H](CCC(=O)O)C(=O)N[C@@H](Cc1ccccc1)C(=O)O
14 | 8.85 | CC(C)[C@H](NC(=O)OCc1ccccc1)C(=O)N[C@@H](Cc1ccccc1)C(=O)C(F)(F)CCc1ccccn1
15 | 5.40 | CC(C)(C)OC(=O)N[C@@H](Cc1ccccc1)[C@H](O)CC(=O)N[C@@H](CCC(=O)O)C(=O)N[C@@H](Cc1ccccc1)C(=O)O
16 | 7.15 | CC[C@H](C)[C@H](NC(=O)[C@H]1CCCN1C(=O)[C@H](CO)NC(=O)[C@@H](NC(=O)[C@@H]1CCCN1C(=O)[C@H](Cc1ccccc1)NC(=O)[C@H](CC(N)=O)NC(=O)[C@H](CC(C)C)NC(=O)[C@@H](NC(=O)[C@@H](N)CS)[C@@H](C)O)[C@@H](C)CC)C(=O)O
17 | 8.66 | CC(C)[C@H](NC(=O)OCc1ccccn1)C(=O)N[C@@H](Cc1ccccc1)C(=O)C(F)(F)CCc1ccccc1
18 | 9.22 | CC[C@H](C)[C@H](NC(=O)[C@H](Cc1ccccc1)NC(=O)C[C@H](O)[C@H](Cc1ccccc1)NC(=O)OC(C)(C)C)C(=O)N[C@@H](Cc1ccccc1)C(=O)OC
19 | 8.30 | CC[C@H](C)[C@H](NC(=O)[C@H](C(C)C)[C@@H](O)[C@H](O)[C@H](CC(C)C)NC(=O)OCc1ccccc1)C(=O)NCc1ccccn1
20 | 9.66 | CC(C)[C@H](NC(=O)OCc1ccccc1)C(=O)N[C@@H](Cc1ccccc1)[C@H](O)[C@H](O)[C@H](Cc1ccccc1)NC(=O)[C@@H](NC(=O)OCc1ccccc1)C(C)C
21 | 7.92 | CC(=O)N[C@H](C(=O)C[C@@H](Cc1ccccc1)[C@H](O)[C@H](Cc1ccccc1)NC(=O)[C@@H](NC(C)=O)C(C)C)C(C)C
22 | 8.31 | CC[C@H](C)[C@H](NC(=O)OCc1ccccc1)C(=O)N[C@@H](Cc1ccccc1)[C@@H](O)[C@@H](CC(=O)[C@H](NC(=O)OCc1ccccc1)[C@@H](C)CC)Cc1ccccc1
23 | 6.92 | COC(=O)[C@@H](NC(=O)[C@@H](NC(=O)CC[C@H](O)[C@H](Cc1ccccc1)NC(=O)[C@H](C)NC(=O)OCc1ccccc1)C(C)C)C(C)C
24 | 5.52 | CC(C)(C)OC(=O)N[C@H](Cc1ccccc1)[C@H](O)CC(=O)N[C@@H](CCC(=O)O)C(=O)N[C@@H](Cc1ccccc1)C(=O)O

Row | pKi | SMILES
25 | 6.44 | CCC(C)CNC(=O)[C@H](C(C)C)[C@@H](O)[C@H](O)[C@H](CC(C)C)NC(=O)OCc1ccccc1 (some centres undefined)
26 | 8.00 | CC(=O)N[C@H](C(=O)N[C@H](C(=O)C[C@@H](Cc1ccccc1)[C@H](O)[C@H](Cc1ccccc1)NC(=O)[C@@H](NC(=O)[C@@H](NC(C)=O)C(C)C)C(C)C)C(C)C)C(C)C
27 | 5.45 | CC[C@H](C)[C@H](NC(=O)[C@@H]1CCCN1C[C@@H](CC(=O)[C@H](CC(N)=O)NC(=O)[C@H](CCC(N)=O)NC(=O)[C@H](CO)NC(=O)[C@@H](N)C(C)C)Cc1ccccc1)C(=O)N[C@H](C(=O)O)C(C)C
28 | 8.54 | CC(C)[C@H](NC(=O)NCc1ccccn1)C(=O)N[C@@H](Cc1ccccc1)C(=O)C(F)(F)CCc1ccccc1
29 | 9.00 | CC(C)[C@H](NC(=O)CNC(=O)OCc1ccccc1)C(=O)N[C@@H](Cc1ccccc1)C(=O)C(F)(F)CCc1ccccc1
30 | 7.15 | CC[C@H](C)[C@H](NC(=O)[C@@H](C[C@H](O)C(CC1CCCCC1)NC(=O)[C@@H](N)C(C)C)C(C)C)C(=O)NCc1ccccn1 (some centres undefined)
31 | 7.40 | CC(C)(C)OC(=O)N[C@@H](Cc1ccccc1)[C@@H](O)[C@H](O)[C@H](Cc1ccccc1)NC(=O)OC(C)(C)C
32 | 6.55 | CC(C)(C)OC(=O)N[C@@H](Cc1ccccc1)[C@H](O)[C@@H](O)[C@H](Cc1ccccc1)NC(=O)OC(C)(C)C
33 | 7.68 | CC[C@H](C)[C@H](NC(=O)[C@H]1CCCN1C[C@H](O)[C@H](CC(C)C)NC(=O)[C@H](CC(N)=O)NC(=O)[C@H](CC(C)C)NC(C)=O)C(=O)N[C@H](C(=O)OC)C(C)C (Ac-LN[X2]IV-OMe)
34 | 4.42 | CC(=O)N[C@@H](CO)C(=O)N[C@@H](C)C(=O)N[C@@H](C)C(=O)N[C@@H](Cc1ccccc1)CN1CCC[C@@H]1C(=O)N[C@H](C(=O)N[C@H](C(N)=O)C(C)C)C(C)C (Ac-SAA[X8]VV-NH2)
35 | 6.01 | CC[C@H](C)[C@H](NC(=O)[C@H]1CCCN1C[C@H](O)[C@H](CC(C)C)NC(=O)[C@H](CC(N)=O)NC(=O)[C@H](CC(C)C)NC(=O)[C@H](CO)NC(C)=O)C(=O)OC (Ac-SLN[X2]I-OMe)
36 | 7.96 | CC[C@H](C)[C@H](NC(=O)[C@H]1CCCN1C[C@H](O)[C@H](CC(C)C)NC(=O)[C@H](CC(N)=O)NC(=O)[C@H](CC(C)C)NC(=O)[C@H](CO)NC(C)=O)C(=O)N[C@H](C(=O)OC)C(C)C (Ac-SLN[X2]IV-OMe)
37 | 6.38 | CC[C@H](C)[C@H](NC(=O)[C@H]1CCCN1C[C@H](O)[C@H](Cc1ccccc1)NC(=O)[C@H](CC(N)=O)NC(=O)[C@H](CC(C)C)NC(=O)[C@H](CO)NC(C)=O)C(=O)OC (Ac-SLN[X5]I-OMe)
38 | 9.62 | CC[C@H](C)[C@H](NC(=O)[C@H]1CCCN1C[C@H](O)[C@H](Cc1ccccc1)NC(=O)[C@H](CC(N)=O)NC(=O)[C@H](CC(C)C)NC(=O)[C@H](CO)NC(C)=O)C(=O)N[C@H](C(=O)OC)C(C)C (Ac-SLN[X5]IV-OMe)
39 | 4.89 | CC(=O)N[C@@H](CO)C(=O)N[C@@H](CCC(N)=O)C(=O)N[C@@H](CC(N)=O)C(=O)N[C@@H](Cc1ccc(O)cc1)CN1CCC[C@@H]1C(=O)N[C@H](C(=O)N[C@H](C(N)=O)C(C)C)C(C)C (Ac-SQN[X10]VV-NH2)
40 | 5.92 | COC(=O)[C@@H](NC(=O)[C@@H](NC(=O)C[C@H](O)[C@H](Cc1ccccc1)NC(=O)[C@H](C)NC(=O)[C@H](C)NC(=O)[C@H](CO)NC(=O)OC(C)(C)C)C(C)C)C(C)C (Boc-SAA[Ahppa(3S,4S)]VV-OMe)
41 | 6.74 | COC(=O)[C@@H](NC(=O)[C@@H](NC(=O)C[C@H](O)[C@H](Cc1ccc(O)cc1)NC(=O)[C@H](C)NC(=O)[C@H](C)NC(=O)[C@H](CO)NC(=O)OC(C)(C)C)C(C)C)C(C)C (Boc-SAA[X1]VV-OMe)
42 | 6.80 | COC(=O)[C@@H](NC(=O)[C@@H](NC(=O)C(F)(F)C(=O)[C@H](Cc1ccccc1)NC(=O)[C@H](C)NC(=O)[C@H](C)NC(=O)[C@H](CO)NC(=O)OC(C)(C)C)C(C)C)C(C)C (Boc-SAA[X4]VV-OMe)
43 | 7.32 | COC(=O)[C@@H](NC(=O)[C@@H](NC(=O)CC[C@H](O)[C@H](Cc1ccccc1)NC(=O)[C@H](Cc1ccccc1)NC(=O)[C@H](C)NC(=O)[C@H](C)NC(=O)OCc1ccccc1)C(C)C)C(C)C (Cbz-AAF[Hexanoyl(5S-NH,4S-OH,6-Ph)]VV-OMe)
44 | 7.74 | COC(=O)[C@@H](NC(=O)[C@@H](NC(=O)CC[C@H](O)[C@H](Cc1ccccc1)NC(=O)[C@H](C)NC(=O)[C@H](C)N)C(C)C)C(C)C (H-AA[Hexanoyl(5S-NH,4S-OH,6-Ph)]VV-OMe)
45 | 6.09 | COC(=O)[C@@H](NC(=O)[C@@H](NC(=O)C[C@H](O)[C@H](Cc1ccccc1)NC(=O)[C@H](C)NC(=O)[C@H](C)NC(=O)[C@@H](N)CO)C(C)C)C(C)C (H-SAA[Ahppa(3S,4S)]VV-OMe)
46 | 7.21 | COC(=O)[C@@H](NC(=O)[C@@H](NC(=O)CC[C@H](O)[C@H](Cc1ccccc1)NC(=O)[C@H](C)NC(=O)[C@H](C)NC(=O)[C@@H](N)CO)C(C)C)C(C)C (H-SAA[Hexanoyl(5S-NH,4S-OH,6-Ph)]VV-OMe)
47 | 7.10 | COC(=O)[C@@H](NC(=O)[C@@H](NC(=O)C[C@H](O)[C@H](Cc1ccc(O)cc1)NC(=O)[C@H](C)NC(=O)[C@H](C)NC(=O)[C@@H](N)CO)C(C)C)C(C)C (H-SAA[X1]VV-OMe)
48 | 6.30 | COC(=O)[C@@H](NC(=O)[C@@H](NC(=O)[C@@H]1CCC[C@@H]1[C@H](O)[C@H](Cc1ccccc1)NC(=O)[C@H](C)NC(=O)[C@H](C)NC(=O)[C@@H](N)CO)C(C)C)C(C)C (H-SAA[X3]VV-OMe)

Row | SMILES | pKi
49 | COC(=O)[C@@H](NC(=O)[C@@H](NC(=O)CCP(=O)(O)[C@H](Cc1ccccc1)NC(=O)[C@H](C)NC(=O)[C@H](C)NC(=O)[C@@H](N)CO)C(C)C)C(C)C (H-SAA[PheΨ(PO2HCH2)Gly]VV-OMe) | 5.36
